Patent US6593273B2, “Method for reducing pest damage to corn by treating transgenic corn seeds with pesticide” (priority 2000, dated 2003)

Tested on: western and northern corn rootworm
Assay: Field trial (Example 3): corn rootworm damage by Iowa class, percent of control and synergy threshold
Format: in vivo
Procedure: The determination of damage by corn rootworm was made according to the following protocol. At stage V4-V6, an evaluation of early stand was made by counting the number of plants per acre. At stage VT-R1, an evaluation of corn rootworm damage was carried out by methods that are well known in the industry, and damage by corn rootworm was reported according to the Iowa 1-6 rating system. In that system, the root systems of 10 corn plants per plot are recovered and scored using the 1-6 rating scale, where: 1=no injury or only a few minor feeding scars, 2=feeding injury evident, but no roots eaten back to 1½ inches of the plant, 3=at least one root eaten off to within 1½ inches of the plant, but never an entire node of roots destroyed, 4=one node of roots eaten back to within 1½ inches of the plant, 5=two nodes (circles) of roots eaten back to within 1½ inches of the plant, 6=three nodes (circles) of roots eaten back to within 1½ inches of the plant.
A field trial was run in accordance with pertinent protocols and in conformance with USDA notification requirements. The purpose of the trial was to determine the efficacy of transgenic event Cry3Bb.11231 in corn seed in combination with corn rootworm seed treatments using imidacloprid.
For each growing site that was selected, the plot design included the following:
The following seed treatment combinations were used for each growing area:
All seed treatments with pesticides were carried out as described in Example 1. In seed treatment number 1 and 2, Gaucho® was used for wire worm protection, but at levels sufficiently low that it would be expected to have no effect on corn rootworms (i.e., at a treatment level of about 60 gm of active/100 kg seed or 0.16 mg active/kernel), otherwise, seed receiving treatment number 2 had only transgenic event Cry3Bb.11231 and no pesticide treatment that would be expected to be effective against corn rootworm.
For seeds having treatments numbered 3 through 5, the pesticides were applied by the methods described in Example 1. For seeds having treatment numbers 6 and 7, commercially available Force® 3G and Lorsban® 15G were applied to the soil in a 5″ band at the time of sowing. The levels of application are as shown and are within the ranges recommended for standard commercial practice.
Corn seeds to be tested were planted and grown at four different locations across several Midwestern states in the United States corn belt according to the protocol described above.
The determination of damage by corn root worm was made according to the protocol described in Example 2.
The combination of imidacloprid seed treatment with corn seed having a Cry3Bb.11231 transgenic event was tested for possible synergy at a level of rootworm damage of 3-6. In the first test, shown in Table 2(A), the percentage of test plants having damage levels of from 3 to 6, on the Iowa 1-6 Scale, was determined for the control and for seeds treated with the pesticide at two levels, and for seeds having the transgenic event, alone and in combination. The following formula was then used to calculate a “synergy threshold”:
(% of control Cry3Bb.11231)*(% of control imidacloprid treatment)/100.
This threshold was compared against the percent of control for the treatment combination (i.e., Cry3Bb.11231 with imidacloprid @ 400 gm/100 kg). If the treatment combination percent of control was below the threshold, then it was concluded that there was synergy.
It was believed that the measurement of rootworm damage at higher damage levels (i.e., levels 3-6) is a useful indicator that correlates with subsequent yield loss due to such damage. The reason for this is that rootworm damage at levels 1 and 2 seldom causes corn plants to fall over and lodge, and such minimal root loss is not believed to reduce the number or weight of kernels per ear. However, root damage at levels of 3 and above increasingly causes lodging and loss of yield. […]

## O=[N+]([O-])NC1=NCCN1Cc1ccc(Cl)nc1 [Imidacloprid, 1-[(6-chloro-3-pyridinyl)methol]-N-nitro-2-imidazolidinimime]
Table 2(A), plants with damage levels 3-6 relative to isohybrid control, imidacloprid @ 400 g/100 kg of seed
  PERCENT OF CONTROL: 80.5%
Table 2(B), Iowa 1-6 Scale levels 3-6, imidacloprid @ 400 gm/100 kg
  NUMBER OF PLANTS HAVING 3-6 DAMAGE LEVEL: 71.7
Table 2(B), damage levels 3-6 relative to untreated control, imidacloprid @ 400 gm/100 kg
  PERCENT OF CONTROL: 80.5%
Imidacloprid at 400 gm/100 kg of seed
  protection against corn rootworm damage (in words): effective against corn rootworm damage
Plants in Iowa class 1, imidacloprid @ 400 g/100 kg of seed, FORCE and LORSBAN as surface band at planting
  CORN ROOTWORM DAMAGE IN EACH IOWA CLASS (IOWA 1-6 SCALE): 1: 3
Plants in Iowa class 2, imidacloprid @ 400 g/100 kg of seed, FORCE and LORSBAN as surface band at planting
  CORN ROOTWORM DAMAGE IN EACH IOWA CLASS (IOWA 1-6 SCALE): 2: 15
Plants in Iowa class 3, imidacloprid @ 400 g/100 kg of seed, FORCE and LORSBAN as surface band at planting
  CORN ROOTWORM DAMAGE IN EACH IOWA CLASS (IOWA 1-6 SCALE): 3: 36
Plants in Iowa class 4, imidacloprid @ 400 g/100 kg of seed, FORCE and LORSBAN as surface band at planting
  CORN ROOTWORM DAMAGE IN EACH IOWA CLASS (IOWA 1-6 SCALE): 4: 21
Plants in Iowa class 5, imidacloprid @ 400 g/100 kg of seed, FORCE and LORSBAN as surface band at planting
  CORN ROOTWORM DAMAGE IN EACH IOWA CLASS (IOWA 1-6 SCALE): 5: 5
Plants in Iowa class 6, imidacloprid @ 400 g/100 kg of seed, FORCE and LORSBAN as surface band at planting
  CORN ROOTWORM DAMAGE IN EACH IOWA CLASS (IOWA 1-6 SCALE): 6: 0
